Our source for the EC50 values is US20230295115A1, “SUBSTITUTED ISOQUINOLINYLMETHYL AMIDES, ANALOGUES THEREOF, AND METHODS USING SAME” (priority 2020, published 2023).

For the experiment, the system named is HBV rcDNA. Nature of the experiment: HepDE19 assay with bDNA quantitation of HBV rcDNA. It is filed as cell-based, hepatitis B virus (HBV). As to the method:
HepDE19 assay with bDNA quantitation of HBV rcDNA:
HepDE19 (50,000 cells/well) were plated in 96-well collagen-coated tissue-culture treated microtiter plates in DMEM/F12 medium supplemented with 10% fetal bovine serum, 1% penicillin-streptomycin and 1 μg/mL tetracycline and incubated in a humidified incubator at 37° C. and 5% CO2 overnight. Next day, the cells were switched to fresh medium without tetracycline and incubated for 4 hours at 37° C. and 5% CO2. […] The final DMSO concentration in the assay was 0.5%. The plates were incubated for 7 days in a humidified incubator at 37° C. and 5% CO2. Following a 7 day-incubation, the level of rcDNA present in the inhibitor-treated wells was measured using a Quantigene 2.0 bDNA assay kit (Affymetrix, Santa Clara, CA) with HBV specific custom probe set and manufacturers instructions. Concurrently, the effect of compounds on cell viability was assessed using replicate plates, plated at a density of 5,000 cells/well and incubated for 4 days, to determine the ATP content as a measure of cell viability using the cell-titer glo reagent (CTG; Promega Corporation, Madison, WI) as per manufacturer's instructions.

The mark [1] stands for this setting: Hepatitis B virus, HepDE19, 168 h, HepDE19 cells, 7 day incubation, rcDNA measured by Quantigene 2.0 bDNA assay, top concentration 25 μM, read-out: DE-19bDNA EC50.
The mark [2] stands for this setting: HepDE19 cells, 7 day incubation, rcDNA measured by Quantigene 2.0 bDNA assay, top concentration 25 μM, read-out: DE-19bDNA EC50.
The mark [3] stands for this setting: read-out: DE-19bDNA EC50, HepDE19 cells, 7 day incubation, rcDNA measured by Quantigene 2.0 bDNA assay, top concentration 25 μM.

Molecules are shown by their SMILES. Where two headings read alike, the source gives them in different places.

Turning to `CC(c1c[nH]c(=O)c2cc(F)c(F)cc12)N(C)C(=O)c1cc2c(F)c(F)ccc2[nH]1` (racemic) [Compound 29, N-(1-(6,7-Difluoro-1-oxo-1,2-dihydroisoquinolin-4-yl)ethyl)-4,5-difluoro-N-methyl-1H-indole-2-carboxamide], under setting [1], the EC50 was determined as 0.04 µM.
In the case of `CC(c1c[nH]c(=O)c2cc(F)c(F)cc12)N(C)C(=O)Cc1cc2ccccc2[nH]1` (racemic) [Compound 59, N-(1-(6,7-Difluoro-1-oxo-1,2-dihydroisoquinolin-4-yl)ethyl)-2-(1H-indol-2-yl)-N-methylacetamide], the EC50 (Hepatitis B virus, HepDE19, 168 h, read-out: DE-19bDNA EC50 (μM), HepDE19 cells, 7 day incubation, rcDNA measured by Quantigene 2.0 bDNA assay, top concentration 25 μM) was 0.91 µM.
For `CC(c1c[nH]c(=O)c2cc(F)c(F)cc12)N(C)C(=O)c1[nH]c2ccccc2c1Cl` (racemic) [Compound 60, 3-Chloro-N-(1-(6,7-difluoro-1-oxo-1,2-dihydroisoquinolin-4-yl)ethyl)-N-methyl-1H-indole-2-carboxamide], under setting [1], the EC50 was found to be 0.8 µM.
Still for that read-out and setting: in the case of `CC(C)CN(C(=O)c1cc2ccccn2c1)C(C)c1c[nH]c(=O)c2cc(F)c(F)cc12` (racemic) [Compound 116, N-(1-(6,7-Difluoro-1-oxo-1,2-dihydroisoquinolin-4-yl)ethyl)-N-isobutylindolizine-2-carboxamide] it was 0.08 µM; in that of `CC(C)CN(C(=O)c1ccc(C(F)(F)F)c(F)c1)C(C)c1c[nH]c(=O)c2cc(F)c(F)cc12` (racemic) [Compound 117, N-(1-(6,7-Difluoro-1-oxo-1,2-dihydroisoquinolin-4-yl)ethyl)-3-fluoro-N-isobutyl-4-(trifluoromethyl)benzamide], 0.24 µM; in that of `CC(C)CN(C(=O)c1ccc(C(F)(F)F)c(F)c1)C(C)c1c[nH]c(=O)c2c(F)c(F)ccc12` (racemic) [Compound 118, N-(1-(7,8-Difluoro-1-oxo-1,2-dihydroisoquinolin-4-yl)ethyl)-3-fluoro-N-isobutyl-4-(trifluoromethyl)benzamide], 2.23 µM.
For the compound `CC(c1c[nH]c(=O)c2cc(F)c(F)cc12)N(C)C(=O)C(=O)NC1CC1` (racemic) [Compound 143, N1-Cyclopropyl-N2-(1-(6,7-difluoro-1-oxo-1,2-dihydroisoquinolin-4-yl)ethyl)-N2-methyloxalamide], under setting [1], the EC50 is at least 25 µM.
As for `CC(c1c[nH]c(=O)c2cc(F)c(F)cc12)N(C)C(=O)C(=O)Nc1ccc(F)c(Cl)c1` (racemic) [Compound 144, N1-(3-Chloro-4-fluorophenyl)-N2-(1-(6,7-difluoro-1-oxo-1,2-dihydroisoquinolin-4-yl)ethyl)-N2-methyloxalamide], under setting [1], the EC50 worked out at 1.44 µM.
Consider `CC(c1c[nH]c(=O)c2cc(F)c(F)cc12)N(C)C(=O)c1cc2ccccc2[nH]1` (single isomer, unassigned) [Compound 1, N-(1-(6,7-Difluoro-1-oxo-1,2-dihydroisoquinolin-4-yl)ethyl)-N-methyl-1H-indole-2-carboxamide], for which the EC50 under setting [2] was 2.5 µM.
On the same count and under the same terms, in the case of `CC(c1c[nH]c(=O)c2cc(F)c(F)cc12)N(C)C(=O)c1cc2ccccc2[nH]1` (single isomer, unassigned) [Compound 2, N-(1-(6,7-Difluoro-1-oxo-1,2-dihydroisoquinolin-4-yl)ethyl)-N-methyl-1H-indole-2-carboxamide] it was 0.02 µM; in that of `CC(C)CN(C(=O)c1cc2ccccc2[nH]1)C(C)c1c[nH]c(=O)c2cc(F)c(F)cc12` (single isomer, unassigned) [Compound 3, N-(1-(6,7-Difluoro-1-oxo-1,2-dihydroisoquinolin-4-yl)ethyl)-N-isobutyl-1H-indole-2-carboxamide], 0.67 µM.
Same read-out and setting: the value for `CC(C)CN(C(=O)c1cc2ccccc2[nH]1)C(C)c1c[nH]c(=O)c2cc(F)c(F)cc12` (single isomer, unassigned) [Compound 4, N-(1-(6,7-Difluoro-1-oxo-1,2-dihydroisoquinolin-4-yl)ethyl)-N-isobutyl-1H-indole-2-carboxamide] was 0.01 µM; that for `CCN(C(=O)c1cc2ccccc2[nH]1)C(C)c1c[nH]c(=O)c2cc(F)c(F)cc12` (single isomer, unassigned) [Compound 5, N-(1-(6,7-Difluoro-1-oxo-1,2-dihydroisoquinolin-4-yl)ethyl)-N-ethyl-1H-indole-2-carboxamide] was 1.7 µM; that for `CCN(C(=O)c1cc2ccccc2[nH]1)C(C)c1c[nH]c(=O)c2cc(F)c(F)cc12` (single isomer, unassigned) [Compound 6, N-(1-(6,7-Difluoro-1-oxo-1,2-dihydroisoquinolin-4-yl)ethyl)-N-ethyl-1H-indole-2-carboxamide] was 0.01 µM.
With `CC(c1c[nH]c(=O)c2cc(F)c(F)cc12)N(C)C(=O)c1cc2c(F)cccc2[nH]1` (single isomer, unassigned) [Compound 7, N-(1-(6,7-Difluoro-1-oxo-1,2-dihydroisoquinolin-4-yl)ethyl)-4-fluoro-N-methyl-1H-indole-2-carboxamide], the EC50 under setting [2] was 1.7 µM.
Same read-out and setting: the value for `CC(c1c[nH]c(=O)c2cc(F)c(F)cc12)N(C)C(=O)c1cc2c(F)cccc2[nH]1` (single isomer, unassigned) [Compound 8, N-(1-(6,7-Difluoro-1-oxo-1,2-dihydroisoquinolin-4-yl)ethyl)-4-fluoro-N-methyl-1H-indole-2-carboxamide] was 0.02 µM.
`CC(c1c[nH]c(=O)c2cc(F)c(F)cc12)N(C)C(=O)c1cc2cc(F)ccc2[nH]1` (single isomer, unassigned) [Compound 9, N-(1-(6,7-Difluoro-1-oxo-1,2-dihydroisoquinolin-4-yl)ethyl)-5-fluoro-N-methyl-1H-indole-2-carboxamide]: the EC50 under setting [3] amounted to 1.6 µM.
Still for that read-out and setting: in the case of `CC(c1c[nH]c(=O)c2cc(F)c(F)cc12)N(C)C(=O)c1cc2cc(F)ccc2[nH]1` (single isomer, unassigned) [Compound 10, N-(1-(6,7-Difluoro-1-oxo-1,2-dihydroisoquinolin-4-yl)ethyl)-5-fluoro-N-methyl-1H-indole-2-carboxamide] it was 0.02 µM.
On to `CC(c1c[nH]c(=O)c2cc(F)c(F)cc12)N(C)C(=O)c1cc2ccc(F)cc2[nH]1` (single isomer, unassigned) [Compound 11, N-(1-(6,7-Difluoro-1-oxo-1,2-dihydroisoquinolin-4-yl)ethyl)-6-fluoro-N-methyl-1H-indole-2-carboxamide], for which the EC50 under setting [2] was found to be 1.2 µM.
The same measure, in the same setting: the value for `CC(c1c[nH]c(=O)c2cc(F)c(F)cc12)N(C)C(=O)c1cc2ccc(F)cc2[nH]1` (single isomer, unassigned) [Compound 12, N-(1-(6,7-Difluoro-1-oxo-1,2-dihydroisoquinolin-4-yl)ethyl)-6-fluoro-N-methyl-1H-indole-2-carboxamide] was 0.02 µM; that for `CC(c1c[nH]c(=O)c2cc(F)c(F)cc12)N(C)C(=O)c1cc2cccc(F)c2[nH]1` (single isomer, unassigned) [Compound 13, N-(1-(6,7-Difluoro-1-oxo-1,2-dihydroisoquinolin-4-yl)ethyl)-7-fluoro-N-methyl-1H-indole-2-carboxamide] was 3.4 µM; that for `CC(c1c[nH]c(=O)c2cc(F)c(F)cc12)N(C)C(=O)c1cc2cccc(F)c2[nH]1` (single isomer, unassigned) [Compound 14, N-(1-(6,7-Difluoro-1-oxo-1,2-dihydroisoquinolin-4-yl)ethyl)-7-fluoro-N-methyl-1H-indole-2-carboxamide] was 0.02 µM.
On the same count and under the same terms, the value for `CC(c1c[nH]c(=O)c2cc(F)c(F)cc12)N(C)C(=O)c1cc2cc(F)c(F)cc2[nH]1` (single isomer, unassigned) [Compound 15, N-(1-(6,7-Difluoro-1-oxo-1,2-dihydroisoquinolin-4-yl)ethyl)-5,6-difluoro-N-methyl-1H-indole-2-carboxamide] was 1.6 µM; that for `CC(c1c[nH]c(=O)c2cc(F)c(F)cc12)N(C)C(=O)c1cc2cc(F)c(F)cc2[nH]1` (single isomer, unassigned) [Compound 16, N-(1-(6,7-Difluoro-1-oxo-1,2-dihydroisoquinolin-4-yl)ethyl)-5,6-difluoro-N-methyl-1H-indole-2-carboxamide] was 0.01 µM; that for `CC(c1c[nH]c(=O)c2cc(F)c(F)cc12)N(C)C(=O)c1cc2c(F)cc(F)cc2[nH]1` (single isomer, unassigned) [Compound 17, N-(1-(6,7-Difluoro-1-oxo-1,2-dihydroisoquinolin-4-yl)ethyl)-4,6-difluoro-N-methyl-1H-indole-2-carboxamide] was 2.5 µM.
Still for that read-out and setting: the value for `CC(c1c[nH]c(=O)c2cc(F)c(F)cc12)N(C)C(=O)c1cc2c(F)cc(F)cc2[nH]1` (single isomer, unassigned) [Compound 18, N-(1-(6,7-Difluoro-1-oxo-1,2-dihydroisoquinolin-4-yl)ethyl)-4,6-difluoro-N-methyl-1H-indole-2-carboxamide] was 0.02 µM; that for `CC(c1c[nH]c(=O)c2cc(F)c(F)cc12)N(C)C(=O)[C@@H]1Cc2ccccc2CN1` (single isomer, unassigned) [Compound 19] was 0.82 µM.
